pIC50: −log10 of the molar value.
What follows are molecules tested on H4 (assay: Antiproliferative activity against human H4 cells assessed as inhibition of cell growth measured after 72 hrs by CCK-8 assay). Settings: H4, 72 h.
Assay type: functional, cell-based

`N#CC1(C(=O)NCc2cccc(Cl)c2Cl)CC2c3ccccc3C1c1ccccc12` (racemic) and `N#CC1(C(=O)NCc2ccccc2)CC2c3ccccc3C1c1ccccc12` (racemic) cannot be ordered by pIC50: < 4.10 for the first, < 4.10 for the second.

`COc1cc(NC(=O)C2(C#N)CC3c4ccccc4C2c2ccccc23)cc(OC)c1` (racemic) and `COc1ccc(NC(=O)C2(C#N)CC3c4ccccc4C2c2ccccc23)cc1C` (racemic) cannot be ordered by pIC50: < 4.10 for the first, < 4.10 for the second.

`Cc1ccccc1NC(=O)C1(C#N)CC2c3ccccc3C1c1ccccc12` (racemic) and `N#CC1(C(=O)Nc2ccc(F)cc2)CC2c3ccccc3C1c1ccccc12` (racemic) cannot be ordered by pIC50: < 4.10 for the first, < 4.10 for the second.

Compared with `N#CC1(C(=O)NCCSc2ccccc2)CC2(Br)c3ccccc3C1c1ccccc12` (racemic), `N#CC1(C(=O)NCCc2ccc(Br)cc2)CC2(Br)c3ccccc3C1c1ccccc12` (racemic) is 0.22 log units higher in pIC50: 4.77 for the first, 4.99 for the second. The second is the more potent here.

Going from `N#CC1(C(=O)NCCc2cccc(F)c2)CC2c3ccccc3C1c1ccccc12` (racemic) to `N#CC1(C(=O)NCCc2cccc(Cl)c2)CC2c3ccccc3C1c1ccccc12` (racemic), the pIC50 rises from 4.30 to 4.73 (0.43 log units).

Going from `N#CC1(C(=O)NCC2CCN(Cc3ccccc3)CC2)CC2(Br)c3ccccc3C1c1ccccc12` (racemic) to `N#CC1(C(=O)NCC2CCN(Cc3ccc(F)cc3)CC2)CC2(Br)c3ccccc3C1c1ccccc12` (racemic), the pIC50 falls from 5.48 to < 4.10. The first is the more potent here.

Going from `N#CC1(C(=O)NCCCc2ccc(Br)cc2)CC2(Br)c3ccccc3C1c1ccccc12` (racemic) to `N#CC1(C(=O)NCCc2ccc(F)cc2)CC2(CCl)c3ccccc3C1c1ccccc12` (racemic), the pIC50 rises from 4.28 to 4.49 (0.21 log units). The second is the more potent here.

Compared with `N#CC1(C(=O)Nc2ccc(N)cc2)CC2c3ccccc3C1c1ccccc12` (racemic), `N#CC1(C(=O)NCCc2ccc([N+](=O)[O-])cc2)CC2c3ccccc3C1c1ccccc12` (racemic) is 0.22 log units higher in pIC50: 4.21 for the first, 4.43 for the second.

Compared with `N#CC1(C(=O)NCCc2ccc3c(c2)OCO3)CC2c3ccccc3C1c1ccccc12` (racemic), `N#CC1(C(=O)NCCc2ccccc2F)CC2c3ccccc3C1c1ccccc12` (racemic) is higher in pIC50: < 4.10 for the first, 4.59 for the second.

`O=C(NCCC1CCN(Cc2ccccc2)CC1)C1(Cl)CC2(Br)c3ccccc3C1c1ccccc12` (racemic) and `N#CC1(C(=O)NCCC2CCN(Cc3ccccc3)CC2)CC2c3ccccc3C1c1ccccc12` (racemic) are within 0.2 log units of each other in pIC50: 4.72 for the first, 4.58 for the second.

With `N#CC1(C(=O)NCCc2ccc(F)cc2)CC2(Br)c3ccccc3C1(Br)c1ccccc12` (racemic) the pIC50 was 4.27.

What follows are molecules tested on LN-229 (assay: Antiproliferative activity against human LN-229 cells assessed as inhibition of cell growth measured after 72 hrs by CCK-8 assay). Settings: LN-229, 72 h.
Assay type: functional, cell-based

`N#CC1(C(=O)NCc2cccc(Cl)c2Cl)CC2c3ccccc3C1c1ccccc12` (racemic) and `N#CC1(C(=O)NCc2ccccc2)CC2c3ccccc3C1c1ccccc12` (racemic) cannot be ordered by pIC50: < 4.10 for the first, < 4.10 for the second.

`COc1cc(NC(=O)C2(C#N)CC3c4ccccc4C2c2ccccc23)cc(OC)c1` (racemic) and `COc1ccc(NC(=O)C2(C#N)CC3c4ccccc4C2c2ccccc23)cc1C` (racemic) cannot be ordered by pIC50: < 4.10 for the first, < 4.10 for the second.

`Cc1ccccc1NC(=O)C1(C#N)CC2c3ccccc3C1c1ccccc12` (racemic) and `N#CC1(C(=O)Nc2ccc(F)cc2)CC2c3ccccc3C1c1ccccc12` (racemic) cannot be ordered by pIC50: < 4.10 for the first, < 4.10 for the second.

`N#CC1(C(=O)NCCSc2ccccc2)CC2(Br)c3ccccc3C1c1ccccc12` (racemic) and `N#CC1(C(=O)NCCc2ccc(Br)cc2)CC2(Br)c3ccccc3C1c1ccccc12` (racemic) are within 0.2 log units of each other in pIC50: 4.84 for the first, 5.01 for the second.

`N#CC1(C(=O)NCCc2cccc(F)c2)CC2c3ccccc3C1c1ccccc12` (racemic) and `N#CC1(C(=O)NCCc2cccc(Cl)c2)CC2c3ccccc3C1c1ccccc12` (racemic) are within 0.2 log units of each other in pIC50: 4.48 for the first, 4.44 for the second.

Going from `N#CC1(C(=O)NCC2CCN(Cc3ccccc3)CC2)CC2(Br)c3ccccc3C1c1ccccc12` (racemic) to `N#CC1(C(=O)NCC2CCN(Cc3ccc(F)cc3)CC2)CC2(Br)c3ccccc3C1c1ccccc12` (racemic), the pIC50 falls from 5.23 to < 4.10.

Compared with `N#CC1(C(=O)NCCCc2ccc(Br)cc2)CC2(Br)c3ccccc3C1c1ccccc12` (racemic), `N#CC1(C(=O)NCCc2ccc(F)cc2)CC2(CCl)c3ccccc3C1c1ccccc12` (racemic) is 0.39 log units lower in pIC50: 4.61 for the first, 4.22 for the second.

Compared with `N#CC1(C(=O)Nc2ccc(N)cc2)CC2c3ccccc3C1c1ccccc12` (racemic), `N#CC1(C(=O)NCCc2ccc([N+](=O)[O-])cc2)CC2c3ccccc3C1c1ccccc12` (racemic) is higher in pIC50: < 4.10 for the first, 4.62 for the second. The second is the more potent here.

`N#CC1(C(=O)NCCc2ccc3c(c2)OCO3)CC2c3ccccc3C1c1ccccc12` (racemic) and `N#CC1(C(=O)NCCc2ccccc2F)CC2c3ccccc3C1c1ccccc12` (racemic) are within 0.2 log units of each other in pIC50: 4.43 for the first, 4.31 for the second.

`O=C(NCCC1CCN(Cc2ccccc2)CC1)C1(Cl)CC2(Br)c3ccccc3C1c1ccccc12` (racemic) and `N#CC1(C(=O)NCCC2CCN(Cc3ccccc3)CC2)CC2c3ccccc3C1c1ccccc12` (racemic) are within 0.2 log units of each other in pIC50: 4.91 for the first, 4.94 for the second.

`N#CC1(C(=O)NCCc2ccc(F)cc2)CC2(Br)c3ccccc3C1(Br)c1ccccc12` (racemic) was tested, and the pIC50 was < 4.10.

What follows are molecules tested on Hs 683 (assay: Antiproliferative activity against human Hs 683 cells assessed as inhibition of cell growth measured after 72 hrs by CCK-8 assay). Settings: Hs 683, 72 h.
Assay type: functional, cell-based

`N#CC1(C(=O)NCc2cccc(Cl)c2Cl)CC2c3ccccc3C1c1ccccc12` (racemic) and `N#CC1(C(=O)NCc2ccccc2)CC2c3ccccc3C1c1ccccc12` (racemic) cannot be ordered by pIC50: < 4.10 for the first, < 4.10 for the second.

`COc1cc(NC(=O)C2(C#N)CC3c4ccccc4C2c2ccccc23)cc(OC)c1` (racemic) and `COc1ccc(NC(=O)C2(C#N)CC3c4ccccc4C2c2ccccc23)cc1C` (racemic) cannot be ordered by pIC50: < 4.10 for the first, < 4.10 for the second.

`Cc1ccccc1NC(=O)C1(C#N)CC2c3ccccc3C1c1ccccc12` (racemic) and `N#CC1(C(=O)Nc2ccc(F)cc2)CC2c3ccccc3C1c1ccccc12` (racemic) cannot be ordered by pIC50: < 4.10 for the first, < 4.10 for the second.

`N#CC1(C(=O)NCCSc2ccccc2)CC2(Br)c3ccccc3C1c1ccccc12` (racemic) and `N#CC1(C(=O)NCCc2ccc(Br)cc2)CC2(Br)c3ccccc3C1c1ccccc12` (racemic) are within 0.2 log units of each other in pIC50: 4.93 for the first, 5.07 for the second.

Going from `N#CC1(C(=O)NCCc2cccc(F)c2)CC2c3ccccc3C1c1ccccc12` (racemic) to `N#CC1(C(=O)NCCc2cccc(Cl)c2)CC2c3ccccc3C1c1ccccc12` (racemic), the pIC50 falls from 4.33 to < 4.10. The first is the more potent here.

Compared with `N#CC1(C(=O)NCC2CCN(Cc3ccccc3)CC2)CC2(Br)c3ccccc3C1c1ccccc12` (racemic), `N#CC1(C(=O)NCC2CCN(Cc3ccc(F)cc3)CC2)CC2(Br)c3ccccc3C1c1ccccc12` (racemic) is lower in pIC50: 4.83 for the first, < 4.10 for the second.

`N#CC1(C(=O)NCCCc2ccc(Br)cc2)CC2(Br)c3ccccc3C1c1ccccc12` (racemic) and `N#CC1(C(=O)NCCc2ccc(F)cc2)CC2(CCl)c3ccccc3C1c1ccccc12` (racemic) are within 0.2 log units of each other in pIC50: 4.32 for the first, 4.28 for the second.

`N#CC1(C(=O)Nc2ccc(N)cc2)CC2c3ccccc3C1c1ccccc12` (racemic) and `N#CC1(C(=O)NCCc2ccc([N+](=O)[O-])cc2)CC2c3ccccc3C1c1ccccc12` (racemic) cannot be ordered by pIC50: < 4.10 for the first, < 4.10 for the second.

Compared with `N#CC1(C(=O)NCCc2ccc3c(c2)OCO3)CC2c3ccccc3C1c1ccccc12` (racemic), `N#CC1(C(=O)NCCc2ccccc2F)CC2c3ccccc3C1c1ccccc12` (racemic) is lower in pIC50: 4.36 for the first, < 4.10 for the second.

Going from `O=C(NCCC1CCN(Cc2ccccc2)CC1)C1(Cl)CC2(Br)c3ccccc3C1c1ccccc12` (racemic) to `N#CC1(C(=O)NCCC2CCN(Cc3ccccc3)CC2)CC2c3ccccc3C1c1ccccc12` (racemic), the pIC50 rises from 4.41 to 4.72 (0.31 log units).

For `N#CC1(C(=O)NCCc2ccc(F)cc2)CC2(Br)c3ccccc3C1(Br)c1ccccc12` (racemic), the pIC50 was < 4.10.

What follows are molecules tested on U-251 (assay: Antiproliferative activity against human U-251MG cells assessed as inhibition of cell growth measured after 72 hrs by CCK-8 assay). Settings: U-251, 72 h.
Assay type: functional, cell-based

`N#CC1(C(=O)NCc2cccc(Cl)c2Cl)CC2c3ccccc3C1c1ccccc12` (racemic) and `N#CC1(C(=O)NCc2ccccc2)CC2c3ccccc3C1c1ccccc12` (racemic) cannot be ordered by pIC50: < 4.10 for the first, < 4.10 for the second.

`COc1cc(NC(=O)C2(C#N)CC3c4ccccc4C2c2ccccc23)cc(OC)c1` (racemic) and `COc1ccc(NC(=O)C2(C#N)CC3c4ccccc4C2c2ccccc23)cc1C` (racemic) cannot be ordered by pIC50: < 4.10 for the first, < 4.10 for the second.

`Cc1ccccc1NC(=O)C1(C#N)CC2c3ccccc3C1c1ccccc12` (racemic) and `N#CC1(C(=O)Nc2ccc(F)cc2)CC2c3ccccc3C1c1ccccc12` (racemic) cannot be ordered by pIC50: < 4.10 for the first, < 4.10 for the second.

First: N#CC1(C(=O)NCCSc2ccccc2)CC2(Br)c3ccccc3C1c1ccccc12 (racemic)
Second: N#CC1(C(=O)NCCc2ccc(Br)cc2)CC2(Br)c3ccccc3C1c1ccccc12 (racemic)
The pIC50 of the first is 0.26 log units higher: 4.78 for the first, 4.52 for the second. The first is the more potent here.

`N#CC1(C(=O)NCCc2cccc(F)c2)CC2c3ccccc3C1c1ccccc12` (racemic) and `N#CC1(C(=O)NCCc2cccc(Cl)c2)CC2c3ccccc3C1c1ccccc12` (racemic) are within 0.2 log units of each other in pIC50: 4.39 for the first, 4.27 for the second.

Going from `N#CC1(C(=O)NCC2CCN(Cc3ccccc3)CC2)CC2(Br)c3ccccc3C1c1ccccc12` (racemic) to `N#CC1(C(=O)NCC2CCN(Cc3ccc(F)cc3)CC2)CC2(Br)c3ccccc3C1c1ccccc12` (racemic), the pIC50 falls from 4.81 to < 4.10.

`N#CC1(C(=O)NCCCc2ccc(Br)cc2)CC2(Br)c3ccccc3C1c1ccccc12` (racemic) and `N#CC1(C(=O)NCCc2ccc(F)cc2)CC2(CCl)c3ccccc3C1c1ccccc12` (racemic) are within 0.2 log units of each other in pIC50: 4.42 for the first, 4.46 for the second.

Compared with `N#CC1(C(=O)Nc2ccc(N)cc2)CC2c3ccccc3C1c1ccccc12` (racemic), `N#CC1(C(=O)NCCc2ccc([N+](=O)[O-])cc2)CC2c3ccccc3C1c1ccccc12` (racemic) is higher in pIC50: < 4.10 for the first, 4.32 for the second. The second is the more potent here.

Compared with `N#CC1(C(=O)NCCc2ccc3c(c2)OCO3)CC2c3ccccc3C1c1ccccc12` (racemic), `N#CC1(C(=O)NCCc2ccccc2F)CC2c3ccccc3C1c1ccccc12` (racemic) is higher in pIC50: < 4.10 for the first, 4.42 for the second.

`O=C(NCCC1CCN(Cc2ccccc2)CC1)C1(Cl)CC2(Br)c3ccccc3C1c1ccccc12` (racemic) and `N#CC1(C(=O)NCCC2CCN(Cc3ccccc3)CC2)CC2c3ccccc3C1c1ccccc12` (racemic) are within 0.2 log units of each other in pIC50: 4.62 for the first, 4.44 for the second.

`N#CC1(C(=O)NCCc2ccc(F)cc2)CC2(Br)c3ccccc3C1(Br)c1ccccc12` (racemic) was tested, and the pIC50 was < 4.10.

— ChEMBL document CHEMBL5528066, “Discovery of Novel N-(Anthracen-9-ylmethyl) Benzamide Derivatives as ZNF207 Inhibitors Promising in Treating Glioma” (J Med Chem, 2024)
